Laboratory results from patent US20200360372A1, “COMBINATION THERAPY FOR THE TREATMENT OF ACUTE MYELOID LEUKEMIA” (ASTELLAS PHARMA INC., priority 2016, published 2020).

Tested on: MV4-11 cells
Experiment: Anti-apoptosis protein expression in MV4-11 cells (western blot)
Assay type: cell-based, human
Settings: 24 hours
Description: Anti-Apoptosis Protein Expression
MV4-11 cells were seeded on 15 cm dish and cultured overnight. The cells were treated with compound A at 0 (DMSO) or 10 nmol/L in combination with azacitidine at 0 (DMSO) or 1000 nmol/L at final concentration. The assay was performed in duplicate. After twenty-four hours, cells were harvested and lysed with lysis buffer (RIPA Buffer [Thermo Fisher Scientific], 1×Halt Phosphatase Inhibitor Cocktail [Thermo Fisher Scientific], and Protease Inhibitor Cocktail [Sigma-Aldrich]). The samples are centrifuged, and protein concentrations of supernatants were determined using the Pierce (trademark) 660 nm Protein Assay (Thermo Fisher Scientific). Aliquots of 2.0 μg protein/μL were prepared in sample buffer (10 mmol/L dithiothreitol (DTT) [Nacalai Tesque] and 1×SDS sample buffer [Wako Pure Chemical Industries, Ltd.], in lysis buffer), and then were boiled for 5 min.
The samples were separated by electrophoresis and transferred with Trans-Blot (registration symbol) Turbo transfer Pack PVDF (Bio-Rad Laboratories). After blocking with Blocking One (Nacalai Tesque) for 1 hour, each membrane was incubated with antibodies against MCL-1 (#5453, Cell Signaling Technology), BCL2L10 (#3869. Cell Signaling Technology), Survivin (#AF886, R&D Systems), cleaved PARP (#9541, Cell Signaling Technology), or Actin (A2066, Sigma-Aldrich) overnight in a cold room. After washing, the membranes were then incubated with an anti-rabbit IgG HRP-linked antibody (#7074, Cell Signaling Technology) for 1 hour at room temperature. After a final wash, signals for the each proteins were detected using a chemiluminescence reagent ECL-prime Blotting Detection Reagent (GE Healthcare) with a CCD camera (ImageQuant LAS4000. GE Healthcare).

Compound: CCc1nc(C(N)=O)c(Nc2ccc(N3CCC(N4CCN(C)CC4)CC3)c(OC)c2)nc1NC1CCOCC1 [compound A hemifumarate, 6-ethyl-3-({3-methoxy-4-[4-(4-methylpiperazin-1-yl)piperidin-1-yl]phenyl}amino)-5-(tetrahydro-2H-pyran-4-ylamino)pyrazine-2-carboxamide hemifumarate]
- expression of anti-apoptosis protein BCL2L10 (10 nmol/L): inhibits
- expression of anti-apoptosis protein MCL-1 (10 nmol/L): inhibits
- expression of anti-apoptosis protein survivin (10 nmol/L): inhibits
- PARP cleavage (compound A 10 nmol/L with or without azacitidine 1000 nmol/L): increase
